Results on five molecules are retold here after US11629171B2, “Beta-hairpin peptidomimetics” (POLYPHOR AG, priority 2017, dated 2023).

The structures appear in SMILES notation. Converted amounts (≈) assume the structure as drawn. Where a SMILES comes first, the peptide text is derived from it. Bridges are numbered along the chain shown (N, C = ends). Roman numbers before positions name the chains, in order. [ ]: non-standard residue; d: D form. The star is where a group is joined. Pen = CC(C)(S)[C@H](N)C(=O)O; Tle = CC(C)(C)[C@H](N)C(=O)O; NMeV = CN[C@H](C(=O)O)C(C)C; dDab = NCC[C@@H](N)C(=O)O; hSer = N[C@@H](CCO)C(=O)O; Dab = NCC[C@H](N)C(=O)O; Dap = NC[C@H](N)C(=O)O; NHCH2CH2OH = OCCN*

Holding throughout (type): cell-based
The test system of series [1] is Klebsiella pneumoniae 968733. Particulars: 968733. In outline:
(§1)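 MIC in μg/mL, read as absence of visible growth after 18-20 h incubation at 35° C, by standard CLSI microdilution. Peptides tested in two-fold serial dilution in cation-adjusted MH-II broth containing 0.002% (final) Polysorbate 80, against roughly 10^6 CFU/mL inocula.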

Series [2] deals with Escherichia coli ATCC 25922. Particulars: ATCC 25922. The procedure, abridged: as §1
Series [3] relates to Escherichia coli 926415. Conditions: 926415. The procedure, abridged:
as §1

Series [4] relates to Klebsiella pneumoniae SSI #3010. Particulars: SSI #3010. The procedure, abridged:
as §1

The subject of series [5] is Acinetobacter baumannii 872842. Particulars: 872842. In outline: as §1
The subject of series [6] is Acinetobacter baumannii DSM 30008. Conditions: DSM 30008. In outline:
as §1

Series [7] relates to Enterobacter cloacae 848840. Particulars: 848840. In outline: as §1
Series [8] concerns Pseudomonas aeruginosa ATCC 27853. Conditions: ATCC 27853. In outline:
as §1

The subject of series [9] is human red blood cells (hRBC). Description: Hemolysis. Particulars: red cells of human, 1 h, 200. In outline: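 Percent hemolysis relative to 2% Triton X-100 (100%) and PBS/10% water (0%), from blank-corrected OD540 of diluted supernatants. Peptides tested at 200 μg/mL against 20% (v/v) washed human erythrocytes, 1 h, 37° C, shaking at 300 rpm.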

One may read the MIC as the smallest concentration in the dilution series that meets the test's criterion for growth inhibition. A higher MIC goes with a less susceptible organism. Turning to `CC(=O)N[C@H](C(=O)N[C@H](C(=O)N[C@@H](Cc1ccc(O)cc1)C(=O)N[C@H]1CSSC(C)(C)[C@@H](C(=O)N[C@H](C(=O)N[C@H](C(=O)N[C@H](C(N)=O)[C@@H](C)O)[C@@H](C)O)C(C)C)NC(=O)[C@H](Cc2c[nH]c3ccccc23)NC(=O)[C@H](CO)NC(=O)[C@@H](CCN)NC(=O)[C@H](CCC(=O)N[C@@H](CCN)C(=O)N[C@H](C(=O)N[C@@H](CN)C(=O)N[C@H]2CCNC(=O)[C@H]([C@@H](C)O)NC(=O)[C@H](CCN)NC(=O)[C@H](CCN)NC(=O)[C@H](CC(C)C)NC(=O)[C@@H](CC(C)C)NC(=O)[C@H](CCN)NC2=O)[C@@H](C)O)NC1=O)[C@@H](C)O)C(C)C` [Ex. 222] (I: Ac-VTYCE[dDab]SW[Pen]VTT-NH2 / II: [Dab]T[Dap][Dab][Dab][dL]L[Dab][Dab]T; disulfide I:4-I:9; amide I:5-II:N; lactam II:4-II:C), the MIC in series [1] came to 0.25 µg/mL (≈ 0.102 µM); in [2] it was 0.03125 µg/mL (≈ 0.0127 µM); in series [3], 0.25 µg/mL (≈ 0.102 µM); in series [4] it was 0.0625 µg/mL (≈ 0.0254 µM); in [5], 0.0625 µg/mL (≈ 0.0254 µM); in [6], 0.0625 µg/mL (≈ 0.0254 µM). Further, the MIC in series [7] and in series [8] was 0.125 µg/mL (≈ 0.0509 µM) each time. Also, in [9], the “Hemolysis at 200 μg/mL” value is 1%.

Turning to `CC(=O)N[C@H](C(=O)N[C@H](C(=O)N[C@@H](Cc1ccc(O)cc1)C(=O)N[C@H]1CSSC(C)(C)[C@@H](C(=O)N[C@H](C(=O)N[C@H](C(=O)N[C@H](C(N)=O)[C@@H](C)O)[C@@H](C)O)C(C)(C)C)NC(=O)[C@H](Cc2c[nH]c3ccccc23)NC(=O)[C@H](CO)NC(=O)[C@@H](CCN)NC(=O)[C@H](CCC(=O)N[C@@H](CCN)C(=O)N[C@H](C(=O)N[C@@H](CN)C(=O)N[C@H]2CCNC(=O)[C@H]([C@@H](C)O)NC(=O)[C@H](CCN)NC(=O)[C@H](CCN)NC(=O)[C@H](CC(C)C)NC(=O)[C@@H](CC(C)C)NC(=O)[C@H](CCN)NC2=O)[C@@H](C)O)NC1=O)[C@@H](C)O)C(C)C` [Ex. 221] (I: Ac-VTYCE[dDab]SW[Pen][Tle]TT-NH2 / II: [Dab]T[Dap][Dab][Dab][dL]L[Dab][Dab]T; disulfide I:4-I:9; amide I:5-II:N; lactam II:4-II:C), the MIC is 0.25 µg/mL (≈ 0.101 µM) in [1]; 0.0625 µg/mL (≈ 0.0253 µM) in series [2]; 0.125 µg/mL (≈ 0.0506 µM) in series [3]; 0.125 µg/mL (≈ 0.0506 µM) in series [4]; 0.0625 µg/mL (≈ 0.0253 µM) in series [5]; 0.0625 µg/mL (≈ 0.0253 µM) in series [6]. Moreover, the MIC in series [7] and in series [8] was 0.125 µg/mL (≈ 0.0506 µM) in each case. For the same molecule, in [9], the “Hemolysis at 200 μg/mL” value is 2%.

Turning to `CC(=O)N[C@@H](CC(C)C)C(=O)N[C@H]1CSSC[C@@H](C(=O)N[C@@H](CO)C(N)=O)NC(=O)[C@H](C(C)C)NC(=O)[C@H](CCN)NC(=O)[C@H](Cc2c[nH]c3ccccc23)NC(=O)[C@H](CCN)NC(=O)[C@@H](CCN)NC(=O)[C@H](CCC(=O)N[C@@H](CCN)C(=O)N[C@H](C(=O)N[C@@H](CN)C(=O)N[C@H]2CCNC(=O)[C@H]([C@@H](C)O)NC(=O)[C@H](CCN)NC(=O)[C@H](CCN)NC(=O)[C@H](CC(C)C)NC(=O)[C@@H](CC(C)C)NC(=O)[C@H](CCN)NC2=O)[C@@H](C)O)NC(=O)[C@H](CCN)NC(=O)[C@H](Cc2ccc(O)cc2)NC1=O` [Ex. 353] (I: Ac-LCY[Dab]E[dDab][Dab]W[Dab]VCS-NH2 / II: [Dab]T[Dap][Dab][Dab][dL]L[Dab][Dab]T; disulfide I:2-I:11; amide I:5-II:N; lactam II:4-II:C), the MIC in [1] came to 4 µg/mL (≈ 1.64 µM); in [3], 0.25 µg/mL (≈ 0.103 µM); in series [5] it was 4 µg/mL (≈ 1.64 µM); in [7], 8 µg/mL (≈ 3.28 µM). For the same molecule, in [2], the “Escherichia coli ATCC 25922 MIC” value is 0.125 µg/mL. In addition, the “Klebsiella pneumoniae SSI #3010 MIC” value in [4] worked out at 0.125 µg/mL. The “Acinetobacter baumannii DSM 30008 MIC” value in series [6] came to 1 µg/mL. For the same molecule, the “Pseudomonas aeruginosa ATCC 27853 MIC” value in [8] was 0.25 µg/mL. Besides, in [9], the “Hemolysis at 200 μg/mL” value is less than 1%.

As for `CN[C@H](C(=O)N[C@H]1CSSC[C@@H](C(=O)N[C@@H](CO)C(N)=O)NC(=O)[C@H](C(C)C)NC(=O)[C@@H]2CSSC[C@H](NC(=O)[C@H](Cc3ccc(O)cc3)NC1=O)C(=O)N[C@@H](CCC(=O)N[C@@H](CCN)C(=O)N[C@H](C(=O)N[C@@H](CCN)C(=O)N[C@H]1CCNC(=O)[C@H]([C@@H](C)O)NC(=O)[C@H](CCN)NC(=O)[C@H](CCN)NC(=O)[C@H](CC(C)C)NC(=O)[C@@H](CC(C)C)NC(=O)[C@H](CCN)NC1=O)[C@@H](C)O)C(=O)N[C@H](CCN)C(=O)N[C@@H](CCO)C(=O)N[C@@H](Cc1c[nH]c3ccccc13)C(=O)N2)C(C)C` [Ex. 177] (I: H-[NMeV]CYCE[dDab][hSer]WCVCS-NH2 / II: [Dab]T[Dab][Dab][Dab][dL]L[Dab][Dab]T; disulfide I:2-I:11, I:4-I:9; amide I:5-II:N; lactam II:4-II:C), the MIC was determined as 0.5 µg/mL (≈ 0.207 µM) in [1]; 0.0625 µg/mL (≈ 0.0259 µM) in series [2]; 0.25 µg/mL (≈ 0.103 µM) in series [3]; 0.25 µg/mL (≈ 0.103 µM) in series [4]; 0.125 µg/mL (≈ 0.0517 µM) in [5]; 0.0625 µg/mL (≈ 0.0259 µM) in series [6]. Further, the MIC came out at 1 µg/mL (≈ 0.414 µM) in [7] and 0.125 µg/mL (≈ 0.0517 µM) in series [8]. Moreover, the “Hemolysis at 200 μg/mL” value in series [9] is on record as less than 1%.

With `CC(=O)N[C@H](C(=O)N[C@H]1CSSC[C@@H](C(=O)N[C@@H](Cc2ccc(O)cc2)C(=O)NCCO)NC(=O)[C@H](C(C)(C)C)NC(=O)[C@H](CO)NC(=O)[C@H](Cc2c[nH]c3ccccc23)NC(=O)[C@H](CCO)NC(=O)[C@@H](CCN)NC(=O)[C@H](CCC(=O)N[C@@H](CCN)C(=O)N[C@H](C(=O)N[C@@H](CCN)C(=O)N[C@H]2CCNC(=O)[C@H]([C@@H](C)O)NC(=O)[C@H](CCN)NC(=O)[C@H](CCN)NC(=O)[C@H](CC(C)C)NC(=O)[C@@H](CC(C)C)NC(=O)[C@H](CCN)NC2=O)[C@@H](C)O)NC(=O)[C@H](CCN)NC(=O)[C@H](CO)NC1=O)C(C)C` [Ex. 71] (I: Ac-VCS[Dab]E[dDab][hSer]WS[Tle]CY-NHCH2CH2OH / II: [Dab]T[Dab][Dab][Dab][dL]L[Dab][Dab]T; disulfide I:2-I:11; amide I:5-II:N; lactam II:4-II:C), the MIC in [1] was found to be 0.25 µg/mL (≈ 0.101 µM); in series [2] it was 0.0625 µg/mL (≈ 0.0252 µM); in series [3], 0.25 µg/mL (≈ 0.101 µM); in series [4], 0.125 µg/mL (≈ 0.0503 µM); in series [5], 0.125 µg/mL (≈ 0.0503 µM); in [6], 0.0625 µg/mL (≈ 0.0252 µM). For the same molecule, the MIC in series [7] was 0.25 µg/mL (≈ 0.101 µM); in [8], 0.125 µg/mL (≈ 0.0503 µM). The “Hemolysis at 200 μg/mL” value in series [9] stood at 1%.
